Measured values published in patent US20240293326A1, “CONTROLLED RELEASE FORMULATIONS FOR THE TREATMENT OF MALARIA” (KARICI DIAGNOSTICS INC., priority 2018, published 2024).

Key:
[1] = Dissolution assay of tablets (release kinetics, SGF 2 h then SIF); format: physicochemical
Method: Dissolution assays of formulated monolithic tablets were done in simulated gastric fluid (SGF, pH 1.5) for 2 h and continued in simulated intestinal fluid (SIF, pH 6.8) as referred by USP method 40 (USP, 2017a).
The Pf (Pf, MD/Pf or CMS-Pf) release kinetics from different formulations (Pf, MD/Pf and CMS-Pf monolithic tablet dosage form) were recorded at 100 rpm and 37° C. using a Distek dissolution system 2100A (Betatek Inc., Markham, ON, Canada). At predetermined intervals, an established volume of samples (1 mL) was withdrawn from dissolution media, filtered (0.45 μm) and the released Pf was quantified by UV measurement at 280 nm.
CMS-Pf complexes were prepared as detailed above in Example 1. Briefly, CMS was dispersed at 8.5% in water. After homogenization and obtaining a homogenous suspension, an amount of 50 mL of CMS suspension was slowly added in 450 ml of Pf 21.5% previously dissolved in ethanol (60%). Similar operation was carried out for the CMS and for CMC (high viscosity) with a degree of substitution of 0.8. The final ratio Pf/carboxyl polymer (w/w) was respectively about of 96/4. The solutions were maintained under agitation at room temperature until spray-drying to obtain powders using the following parameters: 1) inlet temperature 150° C.; 2) outlet temperature 100° C.; 3) spray flow 500 L/h, and 4) aspirator setting at 38 m^3/h. During the drying process, the polymeric excipient/Pf suspension was continuously gently stirred to prevent sedimentation. The resulting powder was used to prepare monolithic tablets (12.5 mm diameter, 3.0 mm thickness) containing 400 mg of Pf by direct compaction. The kinetics of the drug release were recorded using the Distek™ dissolution (100 rpm) and the detection of Pf was monitored at 280 nm, first in a dissolution medium made of 1 L of SGF (pH 1.5) during 2 h. Then, the tablets were transferred in 1 L of SIF (pH 7.2) at 37° C.) (USP 32 method).
For each tablet, the dissolution was started in 1 L of SGF (pH 1.5) for 2h and followed in 1 L of SIF (pH 7.2) at 37° C., according to USP 32. The drug release kinetics were recorded using a Distek™ dissolution 2100A paddle system at 100 rpm.
The quantification of Pf was carried out at 280 nm, whereas the dosage of artemisinin was realized by spectrophotometry at 734 nm after filtration and dissolving artemisinin in the acetone/water (ratio 40:60) solvent containing ABTS (2,2′-azino-bis[3-ethylbenzothiazoline-6-sulphonate]).
Dissolution assay was done first in simulated gastric fluid (SGF, pH 1.5) for 2 h and then in simulated intestinal fluid (SIF, pH 6.8) as referred by USP method 40 (2017a). Release kinetics from different formulations were followed at 100 rpm and 37° C. using a Distek dissolution system 2100A (Betatek Inc., Markham, ON, Canada) with a Distek TCS 0200 (North Brunswick, NJ, USA). At predetermined intervals (0.5, 1, 2, 4, 6, 8 and10 h), released Pf and Arte were quantified using the appropriate method (described above).
For Pf dosage, a volume (5 mL) was withdrawn from dissolution media, properly filtered (0.45 μm) and diluted before absorbance measurement at 280 nm. To quantify released Arte, the insoluble precipitate was recuperated, washed several times to remove all Pf residues and quantified as previously described.
Dissolution assays was followed for each tablet first in simulated gastric fluid (SGF, pH 1.5) for 2 h and then continued in simulated intestinal fluid (SIF, pH 6.8) as referred by USP method 40 (USP, 2017c). Release kinetics from both formulation types (containing CMP-Pf or pCMC-Pf) were followed using a Distek dissolution system 2100A (Betatek Inc., Markham, ON, Canada) with a Distek TCS 0200 (North Brunswick, NJ, USA) at 100 rpm and 37° C. At predetermined intervals (0.5, 1, 2, 4, 6, 8, 10 and 12 h), released Pf and Arte from tablets were quantified by absorbancy at 280 nm (for Pf) and at 734 nm (for Arte, using ABTS•+ radical as probe reagent). […]

[2] = In vitro Arte and Pf interaction / stability in SGF (FTIR, NMR, antioxidant capacity); format: physicochemical; conditions: SGF pH 1.5, 37° C., 2 h, one agent in the presence of the other
Method: Since both bioactive agents, Art and Pf will be used in a combination therapy in the same dosage form, there is a risk of molecular interactions to be considered. […] These interactions could also cause a moderate loss of activity due to the partial degradation of the endoperoxide bridge of artemisinin. […] After incubation, Arte was separated from Pf by decantation, washed and dried before FTIR and RMN analyses; whereas the Pf solution (in presence or not of Arte) was filtered and the antioxidant capacity was evaluated as previously described in the section of antioxidant properties. In vitro interaction of Arte with CMC-Pf was evaluated in SGF. Arte and CMC-Pf were incubated in SGF (pH 1.5, at 37° C.) separately or one in the presence of each other (FIG. 31).

[3] = monolithic tablets with CMC-Pf or pCMC-Pf, Example 6

With `C[C@@H]1CC[C@H]2[C@@H](C)C(=O)O[C@@H]3O[C@@]4(C)CC[C@@H]1[C@]32OO4` [Artemisinin] as the compound, how does the “Time to completed release of Artemisinin” value ([1]; bi-layer tablet, Artemisinin 100 mg + Explotab layer, Example 3) read?
Its value is 60 min.

And the “Art released after 2 h in SGF” value ([1]; monolithic tablet, 400 mg CMC/Pf + 100 mg artemisinin, Example 4)?
Its value is “about 45%”.

What about the “Time to complete release of Arte” value ([1]; monolithic tablet, in SIF, Example 5) of the same compound?
Its value is 8 h.

What about the “Time to complete release of Art” value ([1]; monolithic tablet, Example 4) of the same compound?
Its value is 8 h.

And the “Arte released after 2 h in SGF” value ([1]; monolithic tablet, Example 5)?
Its value is “about 51%”.

What about the “Arte released after 2 h in SGF” value [1, 3] of the same compound?
Its value is “about 51%”.

What about the “Time to complete release of Arte” value [1, 3] of the same compound?
The value was 8 h.

And the “Degradation in SGF (FTIR, 1H NMR)” value ([2]; listed as Arte)?
The value was “No degradation”.

What about the “Degradation in SGF (FTIR, 1H NMR)” value ([2]; listed as artemisinin) of the same compound?
Its value is “no degradation”.
